Test results taken from ChEMBL document CHEMBL1201862, “PubChem BioAssay data set” (2004).
Activity calls are given as the source filed them.

How the values were obtained:
[1] = target: T1, Long-chain-fatty-acid--AMP ligase FadD28 (Mycobacterium tuberculosis, UniProt P9WQ59); assay: Fluorescence polarization aasay to screen for inhibitors that compete for the binding of FadD28 to a bisubstrate Measured in Biochemical System Using Plate Reader - 2147-01_Inhibitor_Dose_CherryPick_Activity.; format: functional, Mycobacterium tuberculosis H37Rv
T1 sequence (P9WQ59 whole entry): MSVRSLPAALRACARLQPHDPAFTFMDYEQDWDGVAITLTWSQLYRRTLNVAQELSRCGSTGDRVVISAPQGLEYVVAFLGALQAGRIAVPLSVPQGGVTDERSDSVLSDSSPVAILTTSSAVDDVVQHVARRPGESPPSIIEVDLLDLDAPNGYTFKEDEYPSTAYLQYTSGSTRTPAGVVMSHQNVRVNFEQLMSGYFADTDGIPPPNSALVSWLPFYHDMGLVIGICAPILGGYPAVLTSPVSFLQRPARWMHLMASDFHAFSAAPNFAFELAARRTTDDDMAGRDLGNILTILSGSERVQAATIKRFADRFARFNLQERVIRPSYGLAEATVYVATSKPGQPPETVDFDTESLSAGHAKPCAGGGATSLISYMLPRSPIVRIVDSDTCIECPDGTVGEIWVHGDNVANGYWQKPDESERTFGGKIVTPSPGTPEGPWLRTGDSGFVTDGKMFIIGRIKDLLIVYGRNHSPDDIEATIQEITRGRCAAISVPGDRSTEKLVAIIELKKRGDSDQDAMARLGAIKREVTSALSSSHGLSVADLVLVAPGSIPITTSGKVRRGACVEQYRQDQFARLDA

[2] = target: T2, Endoribonuclease toxin MazF (Escherichia coli K-12, UniProt P0AE70); assay: activation of MazEF endoribonuclease cleavage – biochemical, fluorescence, single-stranded RNA substrate, uHTS hits, dose response (AID 588481); format: functional
T2 sequence (P0AE70 whole entry): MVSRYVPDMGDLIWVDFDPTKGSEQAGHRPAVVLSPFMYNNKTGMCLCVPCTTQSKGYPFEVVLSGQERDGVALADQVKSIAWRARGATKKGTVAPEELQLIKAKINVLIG

[3] = target: T2, Endoribonuclease toxin MazF; assay: substrate-only fluorescence increase artefacts – biochemical, single-stranded RNase substrate, counter-screen for MazEF activator project, dose response (AID 588502); format: functional
[4] = target: 26S proteasome non-ATPase regulatory subunit 14 (Homo sapiens, UniProt O00487); assay: inhibition of proteasome subunit RPN11 – biochemical, fluorescence polarization, uHTS hits, confirmation (AID 602368); format: functional
[5] = target: 72 kDa type IV collagenase (Homo sapiens, UniProt P08253); assay: Dose Response validation of uHTS RPN11 inhibitor hits using a MMP-2 Fluorescence assay.; format: functional
Prothrombin = Prothrombin (Bos taurus, UniProt P00735); assay: thrombin protease inhibitors – biochemical, fluorescence polarization, uHTS hits, dose response (AID 602369); format: functional
[6] = test system: Streptococcus sp. 'group A'; assay: Streptococcus pyogenes SK(-)GAS viability under kanamycin – luminescence, BacTiterGlo, confirmation, counter-screen for streptokinase expression inhibitor project, dose response (AID 1900); format: functional, organism-based
[7] = target: T3, Probable nicotinate-nucleotide adenylyltransferase (Staphylococcus aureus (strain N315), UniProt P65502); format: functional, Staphylococcus aureus subsp. aureus N315; settings: read-out: IC50_Mean;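 for IC50 Mean: confirmatory dose-response retesting of NadD inhibitor hits first found in an ultra-high-throughput screen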
Streptokinase A = target: T4, Streptokinase A (Streptococcus pyogenes serotype M1, UniProt P10520); assay: viability-normalized secreted streptokinase activity reduction – plasminogen activation absorbance, OD405, dose response (AID 1914); format: functional, Streptococcus pyogenes M1 GAS;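 note: secreted streptokinase activity via plasminogen activation per viability signal from cell pellet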
T4 sequence (P10520 whole entry): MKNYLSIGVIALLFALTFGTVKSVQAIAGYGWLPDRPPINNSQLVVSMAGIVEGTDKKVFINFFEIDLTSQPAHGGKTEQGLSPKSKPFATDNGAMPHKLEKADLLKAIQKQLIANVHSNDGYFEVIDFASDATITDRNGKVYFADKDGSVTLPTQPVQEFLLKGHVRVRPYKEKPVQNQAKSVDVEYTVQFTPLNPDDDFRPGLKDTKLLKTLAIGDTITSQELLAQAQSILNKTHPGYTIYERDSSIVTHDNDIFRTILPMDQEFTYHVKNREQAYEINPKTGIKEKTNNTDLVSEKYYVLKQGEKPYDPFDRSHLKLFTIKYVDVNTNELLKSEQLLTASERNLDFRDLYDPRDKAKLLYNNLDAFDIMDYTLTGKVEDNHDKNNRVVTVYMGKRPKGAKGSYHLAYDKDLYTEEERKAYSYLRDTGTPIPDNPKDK

Streptococcus = assay: GAS UMAA2166 growth inhibition – luminescence, BacTiterGlo, counter-screen for streptokinase expression inhibitor project, dose response (AID 1915); format: functional, organism-based;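 note: potency for reduction of bacterial viability or growth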
[8] = target: T3, Probable nicotinate-nucleotide adenylyltransferase; format: functional, Staphylococcus aureus subsp. aureus N315
[9] = target: T5, DNA repair protein RAD52 homolog (Homo sapiens, UniProt P43351); format: functional, biochemical
T5 sequence (P43351 whole entry): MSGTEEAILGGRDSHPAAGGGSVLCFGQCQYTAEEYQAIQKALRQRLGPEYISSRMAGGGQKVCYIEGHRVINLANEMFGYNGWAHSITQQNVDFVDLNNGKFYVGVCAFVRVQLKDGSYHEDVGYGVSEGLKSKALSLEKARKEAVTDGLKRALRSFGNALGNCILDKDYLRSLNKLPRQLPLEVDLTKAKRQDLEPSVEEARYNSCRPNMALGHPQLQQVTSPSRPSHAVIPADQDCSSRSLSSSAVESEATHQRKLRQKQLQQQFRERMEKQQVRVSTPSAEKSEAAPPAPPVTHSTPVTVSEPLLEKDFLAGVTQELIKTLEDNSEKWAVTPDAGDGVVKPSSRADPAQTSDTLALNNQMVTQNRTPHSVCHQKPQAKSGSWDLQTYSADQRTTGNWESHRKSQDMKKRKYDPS

[10] = target: T6, Small ubiquitin-related modifier 1 (Homo sapiens, UniProt P63165); assay: SUMO1 protein interaction blockers, potency – biochemical, fluorescence polarization, uHTS hits, dose response (AID 624382); format: functional; settings: read-out: IC50_Mean
[11] = target: T6, Small ubiquitin-related modifier 1; assay: SUMO1 protein-protein binding blockers, potency – biochemical, FRET, dose response (AID 624383); format: functional; settings: read-out: IC50_Mean
[12] = bead-based luminescence quenchers, dual-tagged ARNT – biochemical, AlphaScreen, cherry-pick, artefact control for ARNT-TACC3 interaction inhibitor project, dose response (AID 651705); format: functional;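 note: AlphaScreen bead proximity signal that flags compounds interfering with the detection technology; potency reflects signal decrease which marks the compound as an assay artifact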

T3 sequence (P65502 whole entry): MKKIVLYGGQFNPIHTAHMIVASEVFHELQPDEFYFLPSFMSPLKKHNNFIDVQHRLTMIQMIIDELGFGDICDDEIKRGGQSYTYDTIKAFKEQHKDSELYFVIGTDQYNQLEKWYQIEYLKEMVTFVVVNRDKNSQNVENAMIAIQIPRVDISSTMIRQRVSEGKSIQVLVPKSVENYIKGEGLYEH
T6 sequence (P63165 whole entry): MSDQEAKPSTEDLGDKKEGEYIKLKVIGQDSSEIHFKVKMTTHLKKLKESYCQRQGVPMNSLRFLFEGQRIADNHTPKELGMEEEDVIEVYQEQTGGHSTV
Chain of 72 kDa type IV collagenase (P08253 whole entry): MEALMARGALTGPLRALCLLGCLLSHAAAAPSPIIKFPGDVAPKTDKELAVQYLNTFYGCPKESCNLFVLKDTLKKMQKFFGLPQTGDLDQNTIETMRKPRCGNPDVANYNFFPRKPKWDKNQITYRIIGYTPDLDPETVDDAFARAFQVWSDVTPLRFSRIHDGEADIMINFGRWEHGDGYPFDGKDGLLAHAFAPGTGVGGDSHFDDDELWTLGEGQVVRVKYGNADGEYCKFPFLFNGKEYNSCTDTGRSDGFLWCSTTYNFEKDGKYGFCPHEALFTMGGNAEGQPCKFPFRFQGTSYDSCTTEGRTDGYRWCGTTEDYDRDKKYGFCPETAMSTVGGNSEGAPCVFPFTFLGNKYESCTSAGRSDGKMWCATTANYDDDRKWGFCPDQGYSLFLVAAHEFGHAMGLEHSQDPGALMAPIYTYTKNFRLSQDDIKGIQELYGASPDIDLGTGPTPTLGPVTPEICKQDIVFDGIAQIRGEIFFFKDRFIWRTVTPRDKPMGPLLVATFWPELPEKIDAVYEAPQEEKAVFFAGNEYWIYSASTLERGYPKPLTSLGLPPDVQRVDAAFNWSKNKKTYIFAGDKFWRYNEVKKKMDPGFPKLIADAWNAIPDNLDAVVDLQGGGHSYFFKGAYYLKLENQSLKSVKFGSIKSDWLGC
Chain of 26S proteasome non-ATPase regulatory subunit 14 (O00487 whole entry): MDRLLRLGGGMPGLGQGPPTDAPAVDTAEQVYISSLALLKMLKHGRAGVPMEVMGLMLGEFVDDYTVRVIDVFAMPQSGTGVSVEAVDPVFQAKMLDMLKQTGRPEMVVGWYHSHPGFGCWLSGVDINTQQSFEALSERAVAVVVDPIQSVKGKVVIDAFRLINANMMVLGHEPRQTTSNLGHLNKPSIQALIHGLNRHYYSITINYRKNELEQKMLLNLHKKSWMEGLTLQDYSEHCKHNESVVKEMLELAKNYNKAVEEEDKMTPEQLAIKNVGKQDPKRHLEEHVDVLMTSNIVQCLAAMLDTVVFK

Structure (SMILES) | IC50 [4] | IC50 [5] | IC50 (Prothrombin) | IC50 [7] | IC50 [8] | further results
CCN(CC)S(=O)(=O)c1cccc(C(=O)OCC(=O)c2ccc3c(c2)OCCO3)c1 | – | – | – | – | – | AC50 [1]: > 100 µM (inactive)
CCCN1C(=O)/C(=C/c2c(NCCCOC(C)C)nc3c(C)cccn3c2=O)SC1=S | 0.09 µM (active) | > 100 µM (inactive) | 0.148 µM (active) | – | – | EC50 [2]: 16 µM (active); EC50 [3]: 34.2 µM (inactive)
Cc1cc(C)c2nc(NNC(=O)c3cc(=O)c4ccccc4o3)sc2c1 | – | – | – | 28.2 µM (active) | 4.41 µM (active) | EC50 [6]: 0.296 µM (active); EC50 (Streptokinase A): > 150 µM (not active); EC50 (Streptococcus): 7.16 µM (active)
CCCCCCCCCCCC1NC(N)=NC(CCCO)=C1C(=O)OC (stereo not given) | 19.9 µM (active) | 85.8 µM (active) | 42.3 µM (active) | – | – | AC50 [9]: 7.72 µM (active); IC50 [10]: > 66.6 µM (inactive); IC50 [11]: 10.1 µM (active)
COc1cc(CNCc2ccccn2)ccc1OCC(=O)NC(C)(C)C | – | – | – | – | – | AC50 [12]: 90.6 µM (active)
NN=C1c2ccccc2C(=O)C1C(=O)C(c1ccccc1)c1ccccc1 (stereo not given) | – | – | – | 25.5 µM (active) | 13.8 µM (active) | –
